Results as given in ChEMBL document CHEMBL5390244, “Riboflavin interactions with the chicken isolated carrier protein” (Bioorg Med Chem Lett, 2023).
Calls of active or inactive are those of the source. The rule behind the calls is not given here.

Tests used:
[1] = biological target: T1, Riboflavin-binding protein (Gallus gallus) (UniProt P02752); test: Binding affinity to chicken riboflavin binding protein assessed as binding energy by fluorescence based analysis
T1 sequence (whole entry): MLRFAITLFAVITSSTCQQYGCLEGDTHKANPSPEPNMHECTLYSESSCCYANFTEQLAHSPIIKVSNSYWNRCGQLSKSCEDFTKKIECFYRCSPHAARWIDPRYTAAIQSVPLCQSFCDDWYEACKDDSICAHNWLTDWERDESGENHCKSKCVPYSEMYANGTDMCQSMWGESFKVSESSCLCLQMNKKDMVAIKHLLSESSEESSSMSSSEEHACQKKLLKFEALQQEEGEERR

[2] = biological target: T1, Riboflavin-binding protein (Gallus gallus); test: Binding affinity to chicken riboflavin binding protein assessed as decrease in fluorescence intensity at upto 250 uM by fluorescence based assay

Row | Activity [1] | Activity [2] | SMILES
1 | 2 kcal/mol | Active | Cc1cc2nc3c(=O)[nH]c(=O)nc-3n(CCCCCCO)c2cc1C
2 | -11.9 kcal/mol | Active | Cc1cc2nc3c(=O)[nH]c(=O)nc-3n(C[C@H](O)[C@H](O)[C@H](O)CO)c2cc1C
